Results reported in patent US10023575B2, “Cyclic ether derivatives of pyrazolo[1,5-a]pyrimidine-3-carboxyamide” (Boehringer Ingelheim International GmbH, priority 2015, dated 2018).
Like-named read-outs stand apart in the source and are kept apart here.

Columns and labels:
[1] = target: PDE 2A (Homo sapiens (Human), UniProt O00408); assay: Phosphodiesterase (PDE) 2A assay with fluorescent substrate (IMAP, fluorescence polarization); type: biochemical; conditions: labeled cAMP 30 nM, read-out: PDE2 IC50
Protocol: (§1) The PDE reaction cleaves cAMP to AMP. The IMAP system (Molecular Device) using fluorescence polarization (FP) as detection principle was used to measure enzyme activity. A fluorescent labeled cAMP was used as substrate for the reaction, generating a labeled AMP. The fluorescent AMP binds specifically to the large M(III)-based nano-particles which reduces the rotational speed of the substrate and thus increases its polarization.
(§2) The inhibition of PDE 2A or 10 enzyme activity was assessed using IMAP-Phosphodiesterase-cAMP fluorescence labeled substrate (Molecular Devices, Order No. R7506), IMAP TR-FRET screening express (Molecular Devices, Order No. R8160, the TR-FRET component will not be used) and PDE 2A or PDE10 protein expressed upon baculovirus infection in SF9 cells. The cells were incubated after infection for ˜3 days and protein production was confirmed by Western Blot. The cells were collected by centrifugation and the pellet frozen in liquid nitrogen before it was resuspended in PBS containing 1% Triton X-100 and protease inhibitors. After 45 min incubation on ice, the cell debris was removed by centrifugation (13.000 rpm, 30 min).
(§3) All reactions were performed in 384 well plates, Perkin Elmer black optiplates and IMAP reaction buffer with 0.1% Tween20 (kit component)
(§4) Compounds were serial diluted in DMSO. With an intermediate dilution step with reaction buffer DMSO concentration was reduced to achieve 1% DMSO in the assay reaction. Setup of the assay started with 10 μl enzyme (˜10 ng/well, depending on prep. batch), 5 μl compound, reaction was started by addition of 5 μl labeled cAMP (30 nM, final concentration), immediately mixed for 15 seconds on a Eppendorf mixmate (2000 rpm) followed by an incubation at room temperature for 90 minutes in the dark. Reaction is stopped by adding of 60 μl binding buffer for FP/cAMP (kit component).
(§5) Each assay plate contained wells with vehicle controls (1% DMSO) for the measurement of non-inhibited reaction (=100% control) and wells without enzyme as 0% controls.

[2] = target: PDE10 (Homo sapiens (Human), UniProt Q9Y233); assay: Phosphodiesterase (PDE) 10 assay with fluorescent substrate (IMAP, fluorescence polarization); type: biochemical; conditions: labeled cAMP 30 nM
Protocol: as §1, §2, §3, §4, §5

[3] = Plasma protein binding with equilibrium dialysis, human plasma; type: in vitro ADME; conditions: equilibrium dialysis 2 hours 37° C.; for PPB HUM % BINDING: human plasma, 1.0 μM; for fraction unbound at 2 h, 1 µM: human, pooled human plasma (with NaEDTA), pH 7.4, human plasma, read-out: PPB HUM % BINDING (converted)
Excerpt: (§6) Plasma Protein Binding (Determination of Human and Rat Plasma Protein Binding with Equilibrium Dialysis)
(§7) This equilibrium dialysis (ED) technique is used to determine the approximate in vitro fractional binding of test compounds to human and rat plasma proteins.
(§8) Dianorm Teflon dialysis cells (micro 0.2) are used. Each cell consists of a donor and an acceptor chamber, separated by an ultrathin semipermeable membrane with a 5 kDa molecular weight cutoff.
(§9) Stock solutions for each test compound are prepared in DMSO at 1 mM and diluted to a final concentration of 1.0 μM. The subsequent dialysis solutions are prepared in pooled human and rat plasma (with NaEDTA)
(§10) Aliquots of 200 μL dialysis buffer (100 mM potassium phosphate, pH 7.4) are dispensed into the buffer chamber. Aliquots of 200 μL test compound dialysis solution are dispensed into the plasma chambers. Incubation is carried out for 2 hours under rotation at 37° C.
(§11) At the end of the dialysis period, the dialysate is transferred into reaction tubes. The tubes for the buffer fraction contain 0.2 ml Acetonitril/water (80/20). Aliquots of 25 μl of the plasma dialysate are transferred into deep well plates and mixed with 25 μl Acetonitril/water (80/20), 25 μl buffer, 25 μl calibration solution and 25 μl Internal Standard solution. Protein precipitation is done by adding 200 μl Acetonitrile. Aliquots of 50 μl of the buffer dialysate are transferred into deep well plates and mixed with 25 μl blank plasma, 25 μl Internal Standard solution and 200 μl Acetonitril. Samples are measured on HPLC-MS/MS-Systems and evaluated with Analyst-Software.
(§12) Percent bound is calculated with the formula: % bound=(plasma concentration−buffer concentration/plasma concentration)×100 and % free is calculated as difference.

[4] = test system: MDCK-MDR1 cell monolayers; assay: Assessment of efflux in MDCK cells transfected with the human MDR1 gene (MDCK assay); type: in vitro ADME, canine; conditions: for efflux ratio: MDCK-MDR1, Papp (b-a) divided by Papp (a-b); for Papp (a-b) mean: MDCK-MDR1, apical-to-basal, pH 7.4, 37° C.
Protocol: Assessment of Efflux in Madin-Darby Canine Kidney Cells Transfected with the Human MDR1 Gene (MDCK Assay)
Apparent permeability coefficients (PE) of the compounds across the MDCK-MDR1 cell monolayers are measured (pH 7.4, 37° C.) in apical-to-basal (AB) and basal-to-apical (BA) transport direction. AB permeability (PEAB) represents drug absorption from the blood into the brain and BA permeability (PEBA) drug efflux from the brain back into the blood via both passive permeability as well as active transport mechanisms mediated by efflux and uptake transporters that are expressed on the MDCK-MDR1 cells, predominantly by the overexpressed human MDR1 P-gp. The compounds are assigned to permeability/absorption classes by comparison of the AB permeabilities with the AB permeabilities of reference compounds with known in vitro permeability and oral absorption in the human. Identical or similar permeabilities in both transport directions indicate passive permeation, vectorial permeability points to additional active transport mechanisms. Higher PEBA than PEAB indicates the involvement of active efflux mediated by MDR1 P-gp. Active transport is concentration-dependently saturable.
MDCK-MDR1 cells (1-2×10e5 cells/1 cm2 area) are seeded on filter inserts (Costar transwell polycarbonate or PET filters, 0.4 μm pore size) and cultured (DMEM) for 7 days. Subsequently, the MDR1 expression is boosted by culturing the cells with 5 mM sodium butyrate in full medium for 2 days. Compounds are dissolved in appropriate solvent (like DMSO, 1-20 mM stock solutions). […] The transport solution (TL) is applied to the apical or basolateral donor side for measuring A-B or B-A permeability (3 filter replicates), respectively. The receiver side contains the same buffer as the donor side. Samples are collected at the start and end of experiment from the donor and at various time intervals for up to 2 hours also from the receiver side for concentration measurement by HPLC-MS/MS or scintillation counting. Sampled receiver volumes are replaced with fresh receiver solution. Efflux ratio is calculated dividing the Papp (b-a) values by the Papp (a-b) values.

[5] = Metabolic stability in pooled human liver microsomes; type: in vitro ADME; conditions: 1 mg/mL protein, 1 μM compound, 37° C.; for Half-life t½ human: human liver microsomes; for half-life at 1 µM: human, pooled human liver microsomes, pH 7.6, human liver microsomes, read-out: Half-life t½ human
Protocol: The metabolic degradation of the test compound was assayed at 37° C. with pooled liver microsomes from various species. The final incubation volume of 100 μl per time point contains TRIS buffer pH 7.6 at room temperature (0.1 M), magnesium chloride (5 mM), microsomal protein (1 mg/mL for human and dog, 0.5 mg/mL for other species) and the test compound at a final concentration of 1 μM. Following a short preincubation period at 37° C., the reactions were initiated by addition of betanicotinamide adenine dinucleotide phosphate, reduced form (NADPH, 1 mM), and terminated by transferring an aliquot into solvent after different time points. […] The half-life was determined by the slope of the semi-logarithmic plot of the concentration-time profile.

[6] = Plasma protein binding with equilibrium dialysis, rat plasma; type: in vitro ADME; conditions: equilibrium dialysis 2 hours 37° C.; for fraction unbound at 2 h, 1 µM: rat, pooled rat plasma (with NaEDTA), pH 7.4, rat plasma, read-out: PPB RAT % BINDING (converted)
Excerpt: as §6, §7, §8, §9, §10, §11, §12

[7] = In-vivo effect: animal experiments and sample analysis (plasma, brain, CSF concentration); conditions: rat, 0.5 h between administration and CSF sampling; for concentration at 0.5 h: doses of 10.0 or 5 μmol/kg
Protocol: In-Vivo Effect: Animal Experiments and Sample Analysis (CSF):
CSF samples were carefully collected by puncture of the cisterna magna under anesthaesia. Immediately after CSF sampling, blood was taken by heart puncture and brains were dissected out. Blood was collected in EDTA-coated microvettes and plasma was prepared by centrifugation. Concentration of the test compounds in plasma, CSF or brain homogenate was determined using HPLC-MS-MS.

[8] = brain homogenate, read-out: conc brain
[9] = brain, read-out: c(brain)/c(plasma)

PDE10, sequence (Q9Y233 whole entry): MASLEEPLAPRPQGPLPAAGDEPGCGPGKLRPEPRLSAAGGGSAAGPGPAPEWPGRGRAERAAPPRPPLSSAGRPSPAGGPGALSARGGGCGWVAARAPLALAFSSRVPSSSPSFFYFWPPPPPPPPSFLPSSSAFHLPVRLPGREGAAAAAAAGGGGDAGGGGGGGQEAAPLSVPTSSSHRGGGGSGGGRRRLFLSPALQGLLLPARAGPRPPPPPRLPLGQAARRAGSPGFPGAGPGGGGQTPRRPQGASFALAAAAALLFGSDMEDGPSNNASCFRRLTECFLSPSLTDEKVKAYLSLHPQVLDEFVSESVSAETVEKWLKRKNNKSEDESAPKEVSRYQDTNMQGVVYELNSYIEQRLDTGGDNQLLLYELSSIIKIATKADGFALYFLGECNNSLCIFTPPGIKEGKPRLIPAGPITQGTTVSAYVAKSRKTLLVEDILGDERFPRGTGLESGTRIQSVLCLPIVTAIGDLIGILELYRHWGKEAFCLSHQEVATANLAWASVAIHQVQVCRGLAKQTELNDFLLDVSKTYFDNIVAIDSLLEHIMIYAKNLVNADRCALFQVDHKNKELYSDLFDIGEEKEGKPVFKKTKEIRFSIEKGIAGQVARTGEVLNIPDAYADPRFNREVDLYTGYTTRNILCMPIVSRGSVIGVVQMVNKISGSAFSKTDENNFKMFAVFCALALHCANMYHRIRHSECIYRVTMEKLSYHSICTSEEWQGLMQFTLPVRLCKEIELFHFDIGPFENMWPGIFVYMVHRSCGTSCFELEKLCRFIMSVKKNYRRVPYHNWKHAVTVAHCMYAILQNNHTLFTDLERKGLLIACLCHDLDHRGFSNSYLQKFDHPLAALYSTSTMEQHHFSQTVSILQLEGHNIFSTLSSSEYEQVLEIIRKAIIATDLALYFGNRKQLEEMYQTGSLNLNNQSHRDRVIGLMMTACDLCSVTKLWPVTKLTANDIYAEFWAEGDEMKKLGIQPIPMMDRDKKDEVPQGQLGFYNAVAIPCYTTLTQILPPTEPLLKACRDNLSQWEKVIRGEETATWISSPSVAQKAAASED
PDE 2A, sequence (O00408 whole entry, species assumed): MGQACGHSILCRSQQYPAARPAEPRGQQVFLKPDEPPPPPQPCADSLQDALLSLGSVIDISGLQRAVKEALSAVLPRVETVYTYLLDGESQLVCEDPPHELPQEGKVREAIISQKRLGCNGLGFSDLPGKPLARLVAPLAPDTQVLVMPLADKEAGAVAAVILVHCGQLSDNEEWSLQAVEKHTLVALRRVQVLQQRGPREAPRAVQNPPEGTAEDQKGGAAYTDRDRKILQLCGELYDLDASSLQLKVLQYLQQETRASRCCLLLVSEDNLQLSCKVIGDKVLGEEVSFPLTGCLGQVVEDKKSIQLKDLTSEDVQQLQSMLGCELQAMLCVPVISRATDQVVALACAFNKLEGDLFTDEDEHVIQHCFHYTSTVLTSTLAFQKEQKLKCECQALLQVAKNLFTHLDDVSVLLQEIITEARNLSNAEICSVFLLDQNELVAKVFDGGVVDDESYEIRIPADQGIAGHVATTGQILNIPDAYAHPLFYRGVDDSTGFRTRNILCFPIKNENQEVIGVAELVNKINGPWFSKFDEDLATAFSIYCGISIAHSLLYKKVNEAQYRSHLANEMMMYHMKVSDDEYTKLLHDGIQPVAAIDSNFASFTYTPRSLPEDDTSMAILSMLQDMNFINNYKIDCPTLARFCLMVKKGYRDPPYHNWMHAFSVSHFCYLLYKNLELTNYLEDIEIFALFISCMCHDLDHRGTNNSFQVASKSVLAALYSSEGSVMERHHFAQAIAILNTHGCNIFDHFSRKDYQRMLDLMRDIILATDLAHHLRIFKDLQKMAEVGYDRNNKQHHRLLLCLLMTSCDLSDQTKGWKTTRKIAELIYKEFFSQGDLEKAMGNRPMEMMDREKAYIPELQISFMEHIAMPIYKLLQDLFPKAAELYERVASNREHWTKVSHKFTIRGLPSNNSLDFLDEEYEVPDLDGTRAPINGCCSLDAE

| SMILES | IC50 [1] [µM] | IC50 [2] [µM] | PPB HUM % BINDING [3] [%] | efflux ratio [4] | Papp (a-b) mean [4] | Half-life t½ human [5] [h] | PPB RAT % BINDING ([6]; rat plasma, 1.0 μM) [%] | concentration at 0.5 h [7, 8] [nM] | Kp at 0.5 h [7, 9] | concentration at 0.5 h ([7]; plasma, read-out: conc plasma) [nM] | concentration at 0.5 h ([7]; read-out: conc CSF) [nM] | Kp at 0.5 h ([7]; read-out: c(CSF)/c(plasma)) | fraction unbound at 2 h, 1 µM [3] | fraction unbound at 2 h, 1 µM [6] | half-life at 1 µM [5] [h] |
| --- | --- | --- | --- | --- | --- | --- | --- | --- | --- | --- | --- | --- | --- | --- | --- |
| O=C(NC1(c2ccc(C(F)(F)F)cc2F)COCC1O)c1cnn2cc(C3CC3)cnc12 (single isomer, unassigned) [Example 70] | 1.25 | > 10 | 79.4 | 2.1 | 20 10-6 cm/s | 1.05 |  |  |  |  |  |  |  |  |  |
| O=C(NC1(c2ccc(C(F)(F)F)cc2F)COCC1O)c1cnn2cc(C3CC3)cnc12 (single isomer, unassigned) [Example 71] | 0.013 | > 10 | 81.1 | 1.9 | 23 10-6 cm/s | >2.17 |  |  |  |  |  |  |  |  |  |
| Cc1cnc2c(C(=O)NC3(c4ccc(C(F)(F)F)cc4F)CCOCC3O)cnn2c1 (single isomer, unassigned) [Example 81b] |  | > 10 | 65.3 |  | 64 10-6 cm/s | >2.17 | 66.2 |  |  |  |  |  |  |  |  |
| O=C(NC1(c2ccc(C(F)(F)F)cc2F)CCOCC1O)c1cnn2cc(C3CC3)cnc12 (single isomer, unassigned) [Example 82a] | 0.0012 | > 10 |  |  |  |  |  | 1180 | 0.36 | 3320 | 157 | 0.05 | 0.213 | 0.135 | > 2.17 |
| Cc1nn2cc(C3CC3)cnc2c1C(=O)NC1(c2ccc(C(F)(F)F)cn2)CCOCC1 [Example 21] | 0.074 | > 10 |  |  |  |  |  | 1320 | 1.17 | 1210 | 106 | 0.09 | 0.162 | 0.128 | > 2.17 |
| Cc1nn2cc(C3CC3)cnc2c1C(=O)NC1(c2ccc(C(F)(F)F)nc2)CCOCC1 [Example 25] | 0.088 | 9.07 |  |  |  |  |  | 957 | 0.92 | 1040 | 111 | 0.12 | 0.246 | 0.169 | > 2.17 |

Continued, values first:

| IC50 [1] [µM] | IC50 [2] [µM] | PPB HUM % BINDING [3] [%] | efflux ratio [4] | Papp (a-b) mean [4] | Half-life t½ human [5] [h] | PPB RAT % BINDING ([6]; rat plasma, 1.0 μM) [%] | concentration at 0.5 h [7, 8] [nM] | Kp at 0.5 h [7, 9] | concentration at 0.5 h ([7]; plasma, read-out: conc plasma) [nM] | concentration at 0.5 h ([7]; read-out: conc CSF) [nM] | Kp at 0.5 h ([7]; read-out: c(CSF)/c(plasma)) | fraction unbound at 2 h, 1 µM [3] | fraction unbound at 2 h, 1 µM [6] | half-life at 1 µM [5] [h] | SMILES |
| --- | --- | --- | --- | --- | --- | --- | --- | --- | --- | --- | --- | --- | --- | --- | --- |
|  |  |  |  | 31 10-6 cm/s |  |  |  |  |  |  |  |  |  |  | Cc1cnc2c(C(=O)NC3(c4ccc(C(F)(F)F)cc4F)CCOCC3(C)O)cnn2c1 (single isomer, unassigned) [Example 84a] |
|  |  |  |  | 23 10-6 cm/s |  |  |  |  |  |  |  |  |  |  | Cc1cnc2c(C(=O)NC3(c4ccc(C(F)(F)F)cc4F)CCOCC3(C)O)cnn2c1 (single isomer, unassigned) [Example 84b] |
